Measurements published in patent US9376442B2, “Methylpyrrolopyrimidinecarboxamides” (Takeda GmbH, priority 2009, dated 2016).

Molecular target: T1, PDE5A1 (Homo sapiens, UniProt O76074)
T1 construct: from tissue; host or cells: human platelets from fresh donor blood (10,000 x g supernatant of sonicated lysate)
Assay: Inhibition of type 5 phosphodiesterase (PDE5) activity, modified SPA test with human platelet lysate
Format: biochemical
Conditions: 0.5 μM cGMP, read-out: PDE5A1 inhibitory values [measured as −log IC50 (mol/l)] (converted)
How it was run: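 Enzyme source is lysate from human platelets (10,000 g supernatant). Compound preincubated 5 min at 37° C in Tris pH 7.4 containing 1 μM motapizone and 10 nM of a PDE2 inhibitor. Reaction started with 0.5 μM cGMP ([3H] tracer) and run 15 min; SPA read-out, IC50 by non-linear regression.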

Row | Structure (SMILES) | IC50 [nM]
1 | COCC(=O)N1CC[C@@H](NC(=O)c2c(C)[nH]c3c(-c4cc(F)c(OC)cc4OCC4CC4)ncnc23)[C@H](O)C1 (relative stereo) [Example E144, 4-[2-(Cyclopropylmethoxy)-5-fluoro-4-methoxyphenyl]-N-[(3R*,4R*)-3-hydroxy-1-(methoxyacetyl)piperidin-4-yl]-6-methyl-5H-pyrrolo[3,2-d]pyrimidine-7-carboxamide] | < 1
2 | CCC(=O)N[C@H]1CC[C@@H](NC(=O)c2c(C)[nH]c3c(-c4ccc(F)cc4OCC4CC4)ncnc23)CC1 [Example E26, 4-[2-(Cyclopropylmethoxy)-4-fluorophenyl]-6-methyl-N-[cis-4-(propionylamino)cyclohexyl]-5H-pyrrolo[3,2-d]pyrimidine-7-carboxamide] | < 1
3 | CCOC(=O)N1CCC(NC(=O)c2c(C)[nH]c3c(-c4cc(F)c(OC)cc4OCC4CC4)ncnc23)CC1 [Example E134, Ethyl 4-[({4-[2-(cyclopropylmethoxy)-5-fluoro-4-methoxyphenyl]-6-methyl-5H-pyrrolo[3,2-d]pyrimidin-7-yl}carbonyl)amino]piperidine-1-carboxylate] | < 1
4 | COCC(=O)N1CC[C@@H](NC(=O)c2c(C)[nH]c3c(-c4cc(OC)ccc4OCC4CC4)ncnc23)C1 [Example E77, 4-[2-(Cyclopropylmethoxy)-5-methoxyphenyl]-N-[(3R)-1-(methoxyacetyl)pyrrolidin-3-yl]-6-methyl-5H-pyrrolo[3,2-d]pyrimidine-7-carboxamide] | < 1
5 | COc1cc(OCC2CC2)c(-c2ncnc3c(C(=O)NC4CCN(C(C)=O)CC4)c(C)[nH]c23)cc1F [Example E131, N-(1-Acetylpiperidin-4-yl)-4-[2-(cyclopropylmethoxy)-5-fluoro-4-methoxyphenyl]-6-methyl-5H-pyrrolo[3,2-d]pyrimidine-7-carboxamide] | < 1
6 | COc1ccc(OCC2CC2)c(-c2ncnc3c(C(=O)N[C@@H]4CCN(C(C)=O)C[C@H]4O)c(C)[nH]c23)c1 (relative stereo) [Example E78, N-[(3R*,4R*)-1-acetyl-3-hydroxypiperidin-4-yl]-4-[2-(cyclopropylmethoxy)-5-methoxyphenyl]-6-methyl-5H-pyrrolo[3,2-d]pyrimidine-7-carboxamide] | < 1
7 | COCC(=O)N1CC[C@H](O)[C@@H](NC(=O)c2c(C)[nH]c3c(-c4cc(OC)c(F)cc4OCC4CC4)ncnc23)C1 (relative stereo) [Example E118, 4-[2-(cyclopropylmethoxy)-4-fluoro-5-methoxyphenyl]-N-[(3S*,4S*)-4-hydroxy-1-(methoxyacetyl)piperidin-3-yl]-6-methyl-5H-pyrrolo[3,2-d]pyrimidine-7-carboxamide] | < 1
8 | COCC(=O)N1C[C@@H](O)[C@H](NC(=O)c2c(C)[nH]c3c(-c4ccc(F)cc4OCC4CC4)ncnc23)C1 (relative stereo) [Example E33, 4-[2-(Cyclopropylmethoxy)-4-fluorophenyl]-N-[(3R*,4R*)-4-hydroxy-1-(methoxyacetyl)pyrrolidin-3-yl]-6-methyl-5H-pyrrolo[3,2-d]pyrimidine-7-carboxamide] | 1 to 10
9 | COCC(=O)N1C[C@@H](O)[C@H](NC(=O)c2c(C)[nH]c3c(-c4cc(OC)ccc4OCC4CC4)ncnc23)C1 (relative stereo) [Example E194, 4-[2-(Cyclopropylmethoxy)-5-methoxyphenyl]-N-[(3R*,4R*)-4-hydroxy-1-(methoxyacetyl)pyrrolidin-3-yl]-6-methyl-5H-pyrrolo[3,2-d]pyrimidine-7-carboxamide] | 1 to 10
10 | CCC(=O)N[C@H]1CC[C@@H](NC(=O)c2c(C)[nH]c3c(-c4cc(F)c(OC)cc4OCC4CC4)ncnc23)CC1 [Example E139, 4-[2-(Cyclopropylmethoxy)-5-fluoro-4-methoxyphenyl]-6-methyl-N-[cis-4-(propionylamino)cyclohexyl]-5H-pyrrolo[3,2-d]pyrimidine-7-carboxamide] | < 1
11 | COCC(=O)N1CC[C@H](NC(=O)c2c(C)[nH]c3c(-c4ccc(F)cc4OCC4CC4)ncnc23)[C@@H](O)C1 (relative stereo) [Example E36, 4-[2-(Cyclopropylmethoxy)-4-fluorophenyl]-N-[(3S*,4S*)-3-hydroxy-1-(methoxyacetyl)piperidin-4-yl]-6-methyl-5H-pyrrolo[3,2-d]pyrimidine-7-carboxamide] | 1 to 10
12 | CCC(=O)N1CC[C@@H](NC(=O)c2c(C)[nH]c3c(-c4cc(OC)ccc4OCC4CC4)ncnc23)C1 [Example E76, 4-[2-(Cyclopropylmethoxy)-5-methoxyphenyl]-6-methyl-N-[(3R)-1-propionylpyrrolidin-3-yl]-5H-pyrrolo[3,2-d]pyrimidine-7-carboxamide] | < 1

Now from value to compound:

Row | IC50 [nM] | Structure (SMILES)
13 | < 1 | COc1cc(OCC2CC2)c(-c2ncnc3c(C(=O)NC4CCN(C(=O)CO)CC4)c(C)[nH]c23)cc1F [Example F83, 4-[2-(Cyclopropylmethoxy)-5-fluoro-4-methoxyphenyl]-N-(1-glycoloylpiperidin-4-yl)-6-methyl-5H-pyrrolo[3,2-d]pyrimidine-7-carboxamide]
14 | < 1 | CCOc1ccc(C(F)(F)F)cc1-c1ncnc2c(C(=O)NC3CCN(C(=O)CO)CC3)c(C)[nH]c12 [Example F63, 4-[2-Ethoxy-5-(trifluoromethyl)phenyl]-N-[1-(hydroxyacetyl)piperidin-4-yl]-6-methyl-5H-pyrrolo[3,2-d]pyrimidine-7-carboxamide]
15 | < 1 | Cc1[nH]c2c(-c3ccc(F)cc3OCC3CC3)ncnc2c1C(=O)N[C@H]1CC[C@H](NC(=O)[C@H](C)O)CC1 [Example F14, 4-[2-(Cyclopropylmethoxy)-4-fluorophenyl]-N-(trans-4-{[(2S)-2-hydroxypropanoyl]amino}cyclohexyl)-6-methyl-5H-pyrrolo[3,2-d]pyrimidine-7-carboxamide]
16 | < 1 | Cc1[nH]c2c(-c3c(OCC4CC4)ccc4c3OCO4)ncnc2c1C(=O)N[C@@H]1CCN(C(=O)[C@H](C)O)C1 [Example F8, 4-[5-(Cyclopropylmethoxy)-1,3-benzodioxol-4-yl]-N-{(3R)-1-[(2S)-2-hydroxypropanoyl]pyrrolidin-3-yl}-6-methyl-5H-pyrrolo[3,2-d]pyrimidine-7-carboxamide]
17 | < 1 | Cc1cc(-c2ncnc3c(C(=O)N[C@H]4CC[C@@H](NC(=O)CO)CC4)c(C)[nH]c23)c(OCC2CC2)cc1F [Example F79, 4-[2-(Cyclopropylmethoxy)-4-fluoro-5-methylphenyl]-N-{cis-4-[(hydroxyacetyl)amino]cyclohexyl}-6-methyl-5H-pyrrolo[3,2-d]pyrimidine-7-carboxamide]
18 | 1 to 10 | COc1ccc(OCC2CC2)c(-c2ncnc3c(C(=O)N[C@@H]4CN(C(=O)CO)C[C@H]4O)c(C)[nH]c23)c1 (relative stereo) [Example F119, 4-[2-(Cyclopropylmethoxy)-5-methoxyphenyl]-N-[(3R*,4R*)-1-glycoloyl-4-hydroxypyrrolidin-3-yl]-6-methyl-5H-pyrrolo[3,2-d]pyrimidine-7-carboxamide]
19 | < 1 | COc1ccc(-c2ncnc3c(C(=O)NC4CCN(C(=O)[C@H](C)O)CC4)c(C)[nH]c23)c(OCC2CC2)c1 [Example F35, 4-[2-(Cyclopropylmethoxy)-4-methoxyphenyl]-N-{1-[(2S)-2-hydroxypropanoyl]piperidin-4-yl}-6-methyl-5H-pyrrolo[3,2-d]pyrimidine-7-carboxamide]
